Reference: patent US20260308186A1, “STAT DEGRADERS AND USES THEREOF” (Recludix Pharma, Inc., priority 2023, published 2026)
Like-named read-outs stand apart in the source and are kept apart here.

Experiments:
STAT3 = target: T1, STAT3 (Homo sapiens, UniProt P40763); experiment: STAT3 Fluorescence Polarization (FP) Assay; type: binding
T1 construct: Recombinant STAT3 protein (STAT3(G127-1722))
Description: STAT3 Fluorescence Polarization (FP) Assay
An FP assay was developed to determine IC50 values for test substances. Recombinant STAT3 protein (STAT3(G127-1722)) at 25 nM was combined with a fluorescently labeled, phosphotyrosine peptide probe (5-FAM-GpYLPQTV-NH2) at 2 nM in FP buffer (10 mM HEPES pH 7.4, 50 mM NaCl, 1 mM EDTA, 0.05% Tween 20.2 mM DTT). 50 μL of STAT3-probe mixture was added to serial diluted compounds in black, 96-well plates (Greiner BioOne 655076) to a final concentration of 1% DMSO. Reaction components were mixed, and FP was measured after 45-minute incubation at room temperature using a Tecan Spark multimode plate reader. FP signal (mP) was plotted against the log concentration of the test substances and IC50 values were calculated by nonlinear regression analysis using GraphPad Prism software. For STAT3 FP assay. A=≤100 nM; B=>100-1000 nM; C=>1-10 μM; and D=>10 μM.

STAT6 = target: T2, STAT6 (Homo sapiens, UniProt P42226); experiment: STAT6 Fluorescence Polarization (FP) Assay; type: binding
T2 construct: Recombinant STAT6 protein (STAT6(W123-T658))
T2 sequence (P42226 123-658): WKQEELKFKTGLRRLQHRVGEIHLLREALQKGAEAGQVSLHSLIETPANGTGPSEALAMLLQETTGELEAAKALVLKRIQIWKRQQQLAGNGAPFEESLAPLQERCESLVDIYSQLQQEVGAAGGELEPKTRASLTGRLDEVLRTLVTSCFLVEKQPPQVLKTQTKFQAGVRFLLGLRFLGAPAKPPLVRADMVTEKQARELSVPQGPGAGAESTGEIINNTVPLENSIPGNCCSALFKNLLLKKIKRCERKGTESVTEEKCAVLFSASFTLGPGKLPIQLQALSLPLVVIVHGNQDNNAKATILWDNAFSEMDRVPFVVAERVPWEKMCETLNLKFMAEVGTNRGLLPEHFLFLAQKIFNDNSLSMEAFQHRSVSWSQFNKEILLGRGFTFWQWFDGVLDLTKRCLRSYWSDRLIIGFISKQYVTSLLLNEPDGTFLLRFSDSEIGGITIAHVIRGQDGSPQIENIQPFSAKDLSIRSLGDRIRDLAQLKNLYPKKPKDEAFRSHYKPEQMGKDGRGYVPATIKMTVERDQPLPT
Description: STAT6 Fluorescence Polarization (FP) Assay
An FP assay was developed to determine IC50 values for test substances. Recombinant STAT6 protein (STAT6(W123-T658)) at 250 nM was combined with a fluorescently labeled, phosphotyrosine peptide probe (5-FAM-Ap[…]-NH2) at 2 nM in FP buffer (10 mM HEPES pH 7.4, 50 mM NaCl, 1 mM EDTA, 0.05% Tween 20, 2 mM DTT), 50 μL of STAT6-probe mixture was added to serial diluted compounds in black, 96-well plates (Greiner BioOne 655076) to a final concentration of 1% DMSO. Reaction components were mixed, and FP was measured after 45-minute incubation at room temperature using a Tecan Spark multimode plate reader. FP signal (mP) was plotted against the log concentration of the test substances and IC50 values were calculated by nonlinear regression analysis using GraphPad Prism software. For STAT6 FP assay. A=≤300 nM; B=>300-3000 nM; C=>3-30 μM; and D=>30 μM.

pSTAT6 = target: T3, pSTAT6 (Homo sapiens, UniProt P42226); experiment: MSD-pSTAT-PBMC Assay, pSTAT6 (IL-4 stimulated PBMC); type: cell-based
T3 construct: pY641-STAT6 MSD read-out
T3 sequence (P42226 1-847): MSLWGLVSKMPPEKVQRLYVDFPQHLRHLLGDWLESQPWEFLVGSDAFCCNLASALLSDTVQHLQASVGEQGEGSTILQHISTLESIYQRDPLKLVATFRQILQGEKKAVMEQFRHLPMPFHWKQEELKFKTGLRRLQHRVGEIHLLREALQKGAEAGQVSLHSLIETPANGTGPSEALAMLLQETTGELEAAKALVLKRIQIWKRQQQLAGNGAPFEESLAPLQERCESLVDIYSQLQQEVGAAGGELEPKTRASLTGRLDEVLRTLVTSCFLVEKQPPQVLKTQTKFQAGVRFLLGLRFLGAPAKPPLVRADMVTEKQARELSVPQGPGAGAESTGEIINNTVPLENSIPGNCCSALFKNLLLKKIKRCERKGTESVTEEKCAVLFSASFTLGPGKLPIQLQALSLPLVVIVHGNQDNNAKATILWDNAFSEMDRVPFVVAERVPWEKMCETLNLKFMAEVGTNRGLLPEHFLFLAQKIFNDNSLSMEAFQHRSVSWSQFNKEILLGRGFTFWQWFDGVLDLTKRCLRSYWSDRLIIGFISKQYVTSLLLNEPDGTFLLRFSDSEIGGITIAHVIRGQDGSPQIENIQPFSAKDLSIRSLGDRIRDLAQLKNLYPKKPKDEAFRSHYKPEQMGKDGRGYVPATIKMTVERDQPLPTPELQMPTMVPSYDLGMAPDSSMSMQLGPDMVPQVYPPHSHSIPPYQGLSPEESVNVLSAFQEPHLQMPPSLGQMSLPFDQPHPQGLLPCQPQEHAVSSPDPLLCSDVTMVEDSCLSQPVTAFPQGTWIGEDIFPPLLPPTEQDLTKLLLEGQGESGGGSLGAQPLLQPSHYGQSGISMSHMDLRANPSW
Text: Cryopreserved Peripheral Blood Mononuclear Cells (PBMC) are from AllCells. Recombinant Human IL-4 and IL-6 are from Peprotech. Mouse monoclonal anti-STAT3 antibody, rabbit monoclonal anti-pY705-STAT3 antibody, rabbit monoclonal Anti-pY641-STAT6 antibody, and lysis buffer are from Cell Signaling Technology (CST). Mouse monoclonal anti-STAT6 antibody is from BioLegend. Assay plates, blocker, and anti-rabbit secondary antibody are from Meso Scale Discovery (MSD).
Cryopreserved PBMCs were thawed out and allowed to recover overnight in IMDM+10% heat-inactivated FBS prior to plating 50,000 (STAT3) or 25,000 (STAT6) cells per well in 96-well U-bottom tissue culture plates. Cells were treated with compound for 3 hrs. then stimulated with 10 ng/mL IL-6 (STAT3) or 1 ng/mL IL-4 (STAT6) for 10 min. Cells were then spun down and washed with ice-cold PBS prior to lysing the cell pellet with 1× lysis buffer (CST) with 1×HALT protease and phosphatase inhibitor cocktail (Thermo). Lysates were transferred to and incubated overnight at 4° C. with shaking in QuickPlex 96-well high bind assay plates (MSD) pre-coated overnight with 30 μL per well of 0.6 μg/mL mouse monoclonal anti-STAT3 antibody (STAT3) or 2 μg/mL mouse monoclonal anti-STAT6 antibody (STAT6) in 1×PBS, and pre-blocked for 1 hour with 3% Blocker-A (MSD). Captured protein in the assay plates were then washed and probed with 25 μL per well of 0.25 μg/ml rabbit monoclonal anti-pY705-STAT3 antibody (STAT3) or 0.18 μg/ml rabbit monoclonal Anti-pY641-STAT6 antibody (STAT6) in 1% Blocker-A for 1 hour at room temperature with shaking, then washed and probed with 25 ul per well of 1 ug/ml Sulfo-TAG Labeled Goat Anti-Rabbit Antibody (MSD) in 1% Blocker-A for 1 hour at room temperature with shaking. Assay plates were then washed and 150 μL of 1× Read Buffer-T (MSD) was added to each well prior to reading on an SQ120 MSD Plate Reader. Assay signal from each sample was subtracted by the signal from unstimulated control wells and normalized to DMSO control wells. IC50 values were calculated using Graph Pad Prism Dose-Response Nonlinear Regression with variable slope. For both pSTAT3 and pSTAT6 A=≤100 nM; B=>100-1000 nM; C=>1000-3000 nM; and D=>3 μM.

[1] = read-out: pSTAT6 IC50, compound 3 hrs, then 1 ng/mL IL-4 for 10 min, pY641-STAT6
[2] = recombinant STAT3 25 nM, probe 5-FAM-GpYLPQTV-NH2 2 nM, 45 min, room temperature, read-out: STAT3 FP IC50
[3] = recombinant STAT6(W123-T658) 250 nM, probe 5-FAM-Ap[…]-NH2 2 nM, 45 min, room temperature, read-out: STAT6 FP IC50
[4] = compound 3 hrs, then 1 ng/mL IL-4 for 10 min, pY641-STAT6, read-out: pSTAT6 IC50

T1 sequence (P40763 127-722 limits assumed): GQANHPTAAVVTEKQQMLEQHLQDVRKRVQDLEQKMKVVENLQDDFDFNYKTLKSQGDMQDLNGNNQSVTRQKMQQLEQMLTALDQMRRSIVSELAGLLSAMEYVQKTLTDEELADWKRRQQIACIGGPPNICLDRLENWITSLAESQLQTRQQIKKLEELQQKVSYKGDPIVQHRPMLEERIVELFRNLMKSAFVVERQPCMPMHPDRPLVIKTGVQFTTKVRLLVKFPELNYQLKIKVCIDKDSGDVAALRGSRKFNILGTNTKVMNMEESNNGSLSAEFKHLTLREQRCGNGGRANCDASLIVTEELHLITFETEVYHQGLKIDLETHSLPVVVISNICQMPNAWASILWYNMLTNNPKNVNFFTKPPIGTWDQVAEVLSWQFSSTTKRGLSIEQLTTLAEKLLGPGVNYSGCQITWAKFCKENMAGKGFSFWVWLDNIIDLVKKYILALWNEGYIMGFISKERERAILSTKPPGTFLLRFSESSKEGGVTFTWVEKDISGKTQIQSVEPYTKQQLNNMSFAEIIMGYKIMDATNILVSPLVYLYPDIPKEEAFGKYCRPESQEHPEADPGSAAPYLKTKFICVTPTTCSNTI

Row | IC50 (STAT3; [2]) | IC50 (STAT6; [3]) | IC50 (pSTAT6; [4]) | Compound | IC50 (STAT3) | IC50 (STAT6) | IC50 (pSTAT6; [1])
1 | – | – | – | Cc1ccc2[nH]nc(C(=O)N3CC[C@H]4CC[C@@H](C(=O)N(C)CCCCCCC#Cc5cccc6c5CN(C5CCC(=O)NC5=O)C6=O)N4C(=O)[C@@H](NC(=O)c4ccc5ccc(C(F)(F)P(=O)(O)O)cc5c4)C3)c2c1 (stereo partly drawn) [Compound 11, ((7-(((5S,8S,10aR)-8-((8-(2-(2,6-dioxopiperidin-3-yl)-1-oxoisoindolin-4-yl)oct-7-yn-1-yl)(methyl)carbamoyl)-3-(5-methyl-1H-indazole-3-carbonyl)-6-oxodecahydropyrrolo[1,2-a][1,5]diazocin-5-yl)carbamoyl)naphthalen-2-yl)difluoromethyl)phosphonic acid] | 1000 to 10000 nM | < 300 nM | 100 to 1000 nM
2 | – | – | – | Cc1ccc2[nH]nc(C(=O)N3CC[C@H]4CC[C@@H](C(=O)N(C)CCCCCCC#Cc5cccc6c5CN(C5CCC(=O)NC5=O)C6=O)N4C(=O)[C@@H](NC(=O)c4ccc5ccc(C(F)P(=O)(O)O)cc5c4)C3)c2c1 (stereo partly drawn) [Compound 14, ((7-(((5S,8S,10aR)-8-((8-(2-(2,6-dioxopiperidin-3-yl)-1-oxoisoindolin-4-yl)oct-7-yn-1-yl)(methyl)carbamoyl)-3-(5-methyl-1H-indazole-3-carbonyl)-6-oxodecahydropyrrolo[1,2-a][1,5]diazocin-5-yl)carbamoyl)naphthalen-2-yl)fluoromethyl)phosphonic acid] | > 10000 nM | 300 to 3000 nM | > 3000 nM
3 | – | – | – | Cc1ccc2[nH]nc(C(=O)N3CC[C@H]4CC[C@@H](C(=O)N(C)CCCCCCC#Cc5cccc6c5CN(C5CCC(=O)NC5=O)C6=O)N4C(=O)[C@@H](NC(=O)c4ccc5ccc(CP(=O)(O)O)cc5c4)C3)c2c1 (stereo partly drawn) [Compound 15, ((7-(((5S,8S,10aR)-8-((8-(2-(2,6-dioxopiperidin-3-yl)-1-oxoisoindolin-4-yl)oct-7-yn-1-yl)(methyl)carbamoyl)-3-(5-methyl-1H-indazole-3-carbonyl)-6-oxodecahydropyrrolo[1,2-a][1,5]diazocin-5-yl)carbamoyl)naphthalen-2-yl)methyl)phosphonic acid] | > 10000 nM | 300 to 3000 nM | > 3000 nM
4 | > 10000 nM | < 300 nM | 100 to 1000 nM | Cc1ccc2onc(C(=O)N3CC[C@H]4CC[C@@H](C(=O)N(C)CCCCCCC#Cc5cccc6c5CN(C5CCC(=O)NC5=O)C6=O)N4C(=O)[C@@H](NC(=O)c4ccc5ccc(C(F)(F)P(=O)(O)O)cc5c4)C3)c2c1 (stereo partly drawn) [Compound 22, ((7-(((5S,8S,10aR)-8-((8-(2-(2,6-dioxopiperidin-3-yl)-1-oxoisoindolin-4-yl)oct-7-yn-1-yl)(methyl)carbamoyl)-3-(5-methylbenzo[d]isoxazole-3-carbonyl)-6-oxodecahydropyrrolo[1,2-a][1,5]diazocin-5-yl)carbamoyl)naphthalen-2-yl)difluoromethyl)phosphonic acid] | – | – | –
5 | 1000 to 10000 nM | < 300 nM | > 3000 nM | Cc1ccc2onc(C(=O)N3CC[C@H]4CC[C@@H](C(=O)N(C)CC(=O)N[C@H](C(=O)N5C[C@H](O)C[C@H]5C(=O)N[C@@H](C)c5ccc(-c6scnc6C)cc5)C(C)(C)C)N4C(=O)[C@@H](NC(=O)c4ccc5ccc(C(F)(F)P(=O)(O)O)cc5c4)C3)c2c1 [Compound 27, (difluoro(7-(((5S,8S,10aR)-8-((2-(((S)-1-((2S,4R)-4-hydroxy-2-(((S)-1-(4-(4-methylthiazol-5-yl)phenyl)ethyl)carbamoyl)pyrrolidin-1-yl)-3,3-dimethyl-1-oxobutan-2-yl)amino)-2-oxoethyl)(methyl)carbamoyl)-3-(5-methylbenzo[d]isoxazole-3-carbonyl)-6-oxodecahydropyrrolo[1,2-a][1,5]diazocin-5-yl)carbamoyl)naphthalen-2-yl)methyl)phosphonic acid] | – | – | –
